Each structure is given as a SMILES string.

The target of the test is T1, Axl (Homo sapiens, UniProt P30530).
T1 construct: endogenous in cells; host or cells: HeLa cells
T1 sequence (P30530 26-894): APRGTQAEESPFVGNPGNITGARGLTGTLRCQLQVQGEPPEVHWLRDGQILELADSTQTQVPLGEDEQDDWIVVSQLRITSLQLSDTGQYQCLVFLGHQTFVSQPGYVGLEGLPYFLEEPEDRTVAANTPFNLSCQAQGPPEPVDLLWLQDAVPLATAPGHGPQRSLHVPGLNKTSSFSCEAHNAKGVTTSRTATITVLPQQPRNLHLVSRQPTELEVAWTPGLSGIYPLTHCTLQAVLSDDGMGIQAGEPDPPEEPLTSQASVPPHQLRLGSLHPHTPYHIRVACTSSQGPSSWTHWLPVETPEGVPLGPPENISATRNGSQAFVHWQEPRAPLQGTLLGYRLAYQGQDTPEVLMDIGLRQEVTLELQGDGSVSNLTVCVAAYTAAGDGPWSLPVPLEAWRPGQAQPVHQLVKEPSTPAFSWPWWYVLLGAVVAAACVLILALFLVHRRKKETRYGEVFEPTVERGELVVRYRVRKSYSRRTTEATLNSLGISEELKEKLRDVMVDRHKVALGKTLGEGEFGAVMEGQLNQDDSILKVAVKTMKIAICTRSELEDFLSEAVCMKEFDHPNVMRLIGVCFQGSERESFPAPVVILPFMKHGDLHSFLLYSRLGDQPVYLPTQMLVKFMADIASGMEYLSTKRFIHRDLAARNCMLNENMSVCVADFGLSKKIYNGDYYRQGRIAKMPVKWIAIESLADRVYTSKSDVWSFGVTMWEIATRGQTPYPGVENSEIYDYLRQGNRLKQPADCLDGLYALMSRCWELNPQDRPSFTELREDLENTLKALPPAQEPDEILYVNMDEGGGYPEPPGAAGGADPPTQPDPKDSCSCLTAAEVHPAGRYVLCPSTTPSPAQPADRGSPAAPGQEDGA
The test can be described thus: Phospho-Akt in-cell Western assay. The format is cell-based. The note with it: Hela cells, stimulated by Axl-antibody cross-linking, phospho-Akt chemiluminescence; Table 1, formula (Ia). On the procedure:
Phospho-Akt in-Cell Western Assay
The compounds of the invention were tested in the following assay for their ability to inhibit Axl activity.
• Cell culture plate: 96 well assay plate (Corning 3610), white, clear bottom, tissue-culture treated. • Cells: Hela cells. • Starvation medium: For Axl stimulation: 0.5% FCS (fetal calf serum) in DMEM, plus Axl/Fc (extracellular domain of AXL fused to imunoglobulin Fc region) (R&D, 154-AL) 500 ng/mL. • For EGF (epidermal growth factor) stimulation: 0.5% FCS in DMEM (Dulbecco's modified Eagles medium). • Poly-L-Lysine 0.01% solution (the working solution): 10 μg/ml, dilute In PBS (phosphate buffered saline). • Axl antibody cross-linking: • 1st: Mouse anti-Axl (R&D, MAB154). • 2nd: Biotin-SP-conjugated AffiniPure goat anti-mouse IgG (H+L) (Jackson ImmunoResearch #115-065-003). • Fixing buffer: 4% formaldehyde in PBS. • Wash buffer: 0.1% TritonX-100 in PBS. • Quenching buffer: 3% H2O2, 0.1% Azide in wash buffer, Azide and hydrogen peroxide (H2O2) are added fresh. • Blocking buffer: 5% BSA in TBST (tris buffered saline plus 0.1% Tween 20). • Primary antibody: Rabbit anti-human Phospho-Akt antibody (Cell Signaling 9271): 1×250 diluted in blocking buffer. • Secondary antibody: HRP (horse radish peroxidase)-conjugated Goat anti-Rabbit secondary, stock solution: Jackson ImmunoResearch (Goat anti-Rabbit HRP, #111-035-144) 1:1 diluted in glycerol, store at −20° C. The working solution: 1×2000 dilution of stock in blocking buffer. • Chemiluminescent working solution (Pierce, 37030): SuperSignal ELISA (enzyme linked immunosorbant assay) Pico Chemiluminescent substrate. • Crystal Violet solution: Stock: 2.5% Crystal violet in methanol, filtered and kept at ambient temperature. The working solution: dilute the stock 1:20 with PBS immediately before use. • 10% SDS: working solution: 5% SDS (sodium dodecylsulfate), diluted in PBS Methods: Day 1:
A 96 well TC (tissue culture treated) plate was coated with 10 μg/mL poly-L-Lysine at 37° C. for 30 min, washed twice with PBS, and air-dried for 5 minutes before cells were added. Hela cells were seeded at 10,000 cells/well and the cells were starved in 100 μL starvation medium containing Axl/Fc for 24 hrs.
The cells were pre-treated with test compounds by adding 100 μL of 2× test compound to the starvation medium on the cells. The cells were incubated at 37° C. for 1 hr before stimulation.
The cells were stimulated by Axl-antibody cross-linking as follows: A 5× 1st/2nd Axl antibody mixture was made (37.5 μg/mL 1st/100 μg/mL 2nd) in starvation medium and nutated at 4° C. with thorough mixing for 1-2 hours for clustering. The resulting mix was warmed to 37° C. 50 μL of 5× Axl 1st/2nd of antibody cluster was added to the cells and the cells were incubated at 37° C. for 5 min.
After 5 minutes stimulation, the plate was flicked to remove medium and the plate was tapped onto paper towels. Formaldehyde (4.0% in PBS, 100 μL) was added to fix the cells and the cells were incubated at ambient temperature for 20 min without shaking.
The cells were washed with a plate washer buffer to remove the formaldehyde solution. The plate was flicked to removed excess wash buffer and tapped onto paper towels. Quenching buffer (100 μL) was added to each well and the cells were incubated at ambient temperature for 20 minutes without shaking.
The cells were washed with a plate washer buffer to remove the quenching buffer. Blocking buffer (100 μL) was added and the cells were incubated at ambient temperature for at least an hour with gentle shaking.
The cells were washed with a plate washer buffer and diluted primary antibody (50 μL) was added to each well (blocking buffer was added to the negative control wells instead). The plates were incubated overnight at 4° C. with gentle shaking.
The wash buffer was removed, diluted secondary antibody (100 μL) was added, and the cells were incubated at ambient temperature for 1 hour with gentle shaking. […]
`Nc1nc(Nc2ccc3c(c2)CC[C@@H](N(CC2CC4C=CC2C4)CC2CC4C=CC2C4)CC3)nn1-c1cc2c(nn1)-c1ccccc1CCC2` (stereo partly drawn) [Compound 37, 1-(6,7-dihydro-5H-benzo[6,7]cyclohepta[1,2-c]pyridazin-3-yl)-N^3-((7S)-7-(di(bicyclo[2.2.1]hept-2-en-5-ylmethyl)amino)-6,7,8,9-tetrahydro-5H-benzo[7]annulene-2-yl)-1H-1,2,4-triazole-3,5-diamine]: the IC50 (usually the concentration that gives 50% inhibition) was 1000 to 10000 nM. Under `Nc1nc(Nc2ccc3c(c2)CCC(N2CCC(F)(F)CC2)CC3)nn1-c1cc2c(nn1)-c1ccccc1CCC2` (centres unmarked) [Compound 3, 1-(6,7-dihydro-5H-benzo[6,7]cyclohepta[1,2-c]pyridazin-3-yl)-N^3-(7-(4,4-difluoropiperidin-1-yl)-6,7,8,9-tetrahydro-5H-benzo[7]annulene-2-yl)-1H-1,2,4-triazole-3,5-diamine] stands 1000 to 10000 nM; under `CCCN(CCC)[C@H]1CCc2ccc(Nc3nc(N)n(-c4cc5c(nn4)-c4cccnc4CCC5)n3)cc2CC1` [Compound 49, 1-(6,7-dihydro-5H-pyrido[2′,3′:6,7]cyclohepta[1,2-c]pyridazin-3-yl)-N^3-((7S)-7-(dipropylamino)-6,7,8,9-tetrahydro-5H-benzo[7]annulene-2-yl)-1H-1,2,4-triazole-3,5-diamine], < 1000 nM; under `COC(=O)[C@H]1CCCN1C1CCc2ccc(Nc3nc(N)n(-c4cc5c(nn4)-c4ccccc4CCC5)n3)cc2CC1` (stereo partly drawn) [Compound 2, 1-(6,7-dihydro-5H-benzo[6,7]cyclohepta[1,2-c]pyridazin-3-yl)-N^3-(7-((2R)-2-(methoxycarbonyl)pyrrolidin-1-yl)-6,7,8,9-tetrahydro-5H-benzo[7]annulene-2-yl)-1H-1,2,4-triazole-3,5-diamine], < 1000 nM. With `Nc1nc(Nc2ccc3c(c2)CCC(N2CCC(C(=O)O)CC2)CC3)nn1-c1cc2c(nn1)-c1ccccc1CCC2` (centres unmarked) [Compound 7, 1-(6,7-dihydro-5H-benzo[6,7]cyclohepta[1,2-c]pyridazin-3-yl)-N^3-(7-(4-(carboxy)piperidin-1-yl)-6,7,8,9-tetrahydro-5H-benzo[7]annulene-2-yl)-1H-1,2,4-triazole-3,5-diamine], the IC50 is < 1000 nM.

Consider `Nc1nc(Nc2ccc3c(c2)CC[C@@H](NCc2cccc(Br)c2)CC3)nn1-c1cc2c(nn1)-c1ccccc1CCC2` [Compound 30, 1-(6,7-dihydro-5H-benzo[6,7]cyclohepta[1,2-c]pyridazin-3-yl)-N^3-((7S)-7-((3-bromophenyl)methyl)amino-6,7,8,9-tetrahydro-5H-benzo[7]annulene-2-yl)-1H-1,2,4-triazole-3,5-diamine], for which the IC50 is 1000 to 10000 nM.

`CC(C)CN[C@H]1CCc2ccc(Nc3nc(N)n(-c4cc5c(nn4)-c4ccccc4CCC5)n3)cc2CC1` [Compound 17, 1-(6,7-dihydro-5H-benzo[6,7]cyclohepta[1,2-c]pyridazin-3-yl)-N^3-((7S)-7-((2-methylpropyl)amino)-6,7,8,9-tetrahydro-5H-benzo[7]annulene-2-yl)-1H-1,2,4-triazole-3,5-diamine]: the 50% inhibitory concentration (IC50) is < 1000 nM. For the compound `CC=CCN[C@H]1CCc2ccc(Nc3nc(N)n(-c4cc5c(nn4)-c4ccccc4CCC5)n3)cc2CC1` [Compound 42, 1-(6,7-dihydro-5H-benzo[6,7]cyclohepta[1,2-c]pyridazin-3-yl)-N^3-((7S)-7-(but-2-enylamino)-6,7,8,9-tetrahydro-5H-benzo[7]annulene-2-yl)-1H-1,2,4-triazole-3,5-diamine], the IC50 is < 1000 nM.

In the case of `Nc1nc(Nc2ccc3c(c2)CCC(N2CCN(CC(=O)O)CC2)CC3)nn1-c1cc2c(nn1)-c1ccccc1CCC2` (centres unmarked) [Compound 10, 1-(6,7-dihydro-5H-benzo[6,7]cyclohepta[1,2-c]pyridazin-3-yl)-N^3-(7-(4-(carboxymethyl)piperazin-1-yl)-6,7,8,9-tetrahydro-5H-benzo[7]annulene-2-yl)-1H-1,2,4-triazole-3,5-diamine], the IC50 lay in the range of 1000 to 10000 nM. Under `CCOC(=O)CN1CCN(C2CCc3ccc(Nc4nc(N)n(-c5cc6c(nn5)-c5ccccc5CCC6)n4)cc3CC2)CC1` (centres unmarked) [Compound 9, 1-(6,7-dihydro-5H-benzo[6,7]cyclohepta[1,2-c]pyridazin-3-yl)-N^3-(7-(4-(ethoxycarbonylmethyl)piperazin-1-yl)-6,7,8,9-tetrahydro-5H-benzo[7]annulene-2-yl)-1H-1,2,4-triazole-3,5-diamine] stands < 1000 nM. Under `Nc1nc(Nc2ccc3c(c2)CC[C@@H](NCc2ccccc2C(=O)O)CC3)nn1-c1cc2c(nn1)-c1ccccc1CCC2` [Compound 29, 1-(6,7-dihydro-5H-benzo[6,7]cyclohepta[1,2-c]pyridazin-3-yl)-N^3-((7S)-7-((2-carboxyphenyl)methyl)amino-6,7,8,9-tetrahydro-5H-benzo[7]annulene-2-yl)-1H-1,2,4-triazole-3,5-diamine] stands 1000 to 10000 nM; under `Nc1nc(Nc2ccc3c(c2)CC[C@@H](N(CC2CC2)CC2CC2)CC3)nn1-c1cc2c(nn1)-c1ccccc1CCC2` [Compound 16, 1-(6,7-dihydro-5H-benzo[6,7]cyclohepta[1,2-c]pyridazin-3-yl)-N^3-((7s)-7-(di(cyclopropylmethyl)amino)-6,7,8,9-tetrahydro-5H-benzo[7]annulene-2-yl)-1H-1,2,4-triazole-3,5-diamine], < 1000 nM. For `CC(C)N[C@H]1CCc2ccc(Nc3nc(N)n(-c4cc5c(nn4)-c4ccccc4CCC5)n3)cc2CC1` [Compound 24, 1-(6,7-dihydro-5H-benzo[6,7]cyclohepta[1,2-c]pyridazin-3-yl)-N^3-((7S)-7-(2-propylamino)-6,7,8,9-tetrahydro-5H-benzo[7]annulene-2-yl)-1H-1,2,4-triazole-3,5-diamine], the IC50 was < 1000 nM. Under `Nc1nc(Nc2ccc3c(c2)CC[C@@H](NC2CCCCC2)CC3)nn1-c1cc2c(nn1)-c1ccccc1CCC2` [Compound 21, 1-(6,7-dihydro-5H-benzo[6,7]cyclohepta[1,2-c]pyridazin-3-yl)-N^3-((7S)-7-(cyclohexylamino)-6,7,8,9-tetrahydro-5H-benzo[7]annulene-2-yl)-1H-1,2,4-triazole-3,5-diamine] stands < 1000 nM.

(Values after patent US9173882B2, “Polycyclic heteroaryl substituted triazoles useful as Axl inhibitors” (Rigel Pharmaceuticals, Inc., priority 2008, dated 2015).)
